Laboratory results as given in ChEMBL document CHEMBL2086273, “Significant activity of ecdysteroids on the resistance to doxorubicin in mammalian cancer cells expressing the human ABCB1 transporter” (J Med Chem, 2012).

Key:
Type in all cases: cell-based
[1] = biological target: T1, ATP-dependent translocase ABCB1 (Homo sapiens, UniProt P08183); experiment: Inhibition of human ABCB1 pump expressed in mouse L5178 cells assessed as fluorescence activity ratio at 20 uM for 10 mins by flow cytometry relative to control; conditions: l5178, 10 min
T1 sequence (P08183 whole entry): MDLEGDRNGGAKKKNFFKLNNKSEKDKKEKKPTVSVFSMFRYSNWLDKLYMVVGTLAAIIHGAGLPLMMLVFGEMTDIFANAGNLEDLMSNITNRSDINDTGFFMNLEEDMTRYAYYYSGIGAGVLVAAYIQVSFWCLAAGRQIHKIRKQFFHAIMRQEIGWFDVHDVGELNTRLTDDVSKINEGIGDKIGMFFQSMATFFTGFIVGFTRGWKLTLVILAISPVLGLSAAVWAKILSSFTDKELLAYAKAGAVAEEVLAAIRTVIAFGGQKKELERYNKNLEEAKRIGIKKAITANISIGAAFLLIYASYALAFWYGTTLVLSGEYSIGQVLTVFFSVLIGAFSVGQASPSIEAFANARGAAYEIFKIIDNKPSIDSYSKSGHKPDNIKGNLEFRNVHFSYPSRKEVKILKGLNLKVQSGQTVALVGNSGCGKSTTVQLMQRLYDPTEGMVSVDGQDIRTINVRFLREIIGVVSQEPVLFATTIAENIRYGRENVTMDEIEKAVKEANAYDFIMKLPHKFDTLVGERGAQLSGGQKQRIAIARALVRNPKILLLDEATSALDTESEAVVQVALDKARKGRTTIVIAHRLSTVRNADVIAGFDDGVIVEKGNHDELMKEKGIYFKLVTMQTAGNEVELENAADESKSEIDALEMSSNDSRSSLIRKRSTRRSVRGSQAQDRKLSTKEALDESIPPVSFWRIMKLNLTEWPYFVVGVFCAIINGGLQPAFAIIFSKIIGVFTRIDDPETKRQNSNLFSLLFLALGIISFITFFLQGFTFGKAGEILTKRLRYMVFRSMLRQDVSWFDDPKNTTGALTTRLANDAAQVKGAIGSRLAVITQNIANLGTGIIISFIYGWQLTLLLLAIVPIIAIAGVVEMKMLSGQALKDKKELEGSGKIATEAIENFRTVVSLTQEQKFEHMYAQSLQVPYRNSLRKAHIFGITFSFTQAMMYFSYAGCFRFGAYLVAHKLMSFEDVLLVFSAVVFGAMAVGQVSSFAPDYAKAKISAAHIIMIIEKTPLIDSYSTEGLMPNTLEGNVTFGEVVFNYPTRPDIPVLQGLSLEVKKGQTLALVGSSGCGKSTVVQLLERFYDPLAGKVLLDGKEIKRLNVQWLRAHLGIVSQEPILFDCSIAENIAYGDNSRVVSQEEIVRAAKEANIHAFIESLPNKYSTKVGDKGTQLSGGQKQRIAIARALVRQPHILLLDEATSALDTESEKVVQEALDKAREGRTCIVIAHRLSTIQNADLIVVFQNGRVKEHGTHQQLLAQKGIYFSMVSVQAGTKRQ

[2] = biological target: T1, ATP-dependent translocase ABCB1; experiment: Inhibition of human ABCB1 expressed in mouse L5178 cells assessed as 50% inhibition of cell proliferation at compound-doxorubicin ratio of 20.4:1 after 48 hrs by MTT assay; conditions: l5178, 48 h
[3] = biological target: T1, ATP-dependent translocase ABCB1; experiment: Inhibition of human ABCB1 expressed in mouse L5178 cells assessed as 75% inhibition of cell proliferation at compound-doxorubicin ratio of 20.4:1 after 48 hrs by MTT assay; conditions: l5178, 48 h
[4] = biological target: T1, ATP-dependent translocase ABCB1; experiment: Inhibition of human ABCB1 expressed in mouse L5178 cells assessed as 95% inhibition of cell proliferation at compound-doxorubicin ratio of 20.4:1 after 48 hrs by MTT assay; conditions: l5178, 48 h
[5] = biological target: T1, ATP-dependent translocase ABCB1; experiment: Inhibition of human ABCB1 expressed in mouse L5178 cells assessed as 50% inhibition of cell proliferation at compound-doxorubicin ratio of 81.5:1 after 48 hrs by MTT assay; conditions: l5178, 48 h
[6] = biological target: T1, ATP-dependent translocase ABCB1; experiment: Inhibition of human ABCB1 expressed in mouse L5178 cells assessed as 75% inhibition of cell proliferation at compound-doxorubicin ratio of 81.5:1 after 48 hrs by MTT assay; conditions: l5178, 48 h
[7] = biological target: T1, ATP-dependent translocase ABCB1; experiment: Inhibition of human ABCB1 expressed in mouse L5178 cells assessed as 95% inhibition of cell proliferation at compound-doxorubicin ratio of 81.5:1 after 48 hrs by MTT assay; conditions: l5178, 48 h

Compound | Ratio [1] | fractional inhibitory concentration index (FICI) [2] | fractional inhibitory concentration index (FICI) [3] | fractional inhibitory concentration index (FICI) [4] | fractional inhibitory concentration index (FICI) [5] | fractional inhibitory concentration index (FICI) [6] | fractional inhibitory concentration index (FICI) [7]
C=C(CCCC(C)(C)O)[C@H]1CC[C@@]2(O)C3=CC(=O)[C@@H]4C[C@@H](O)[C@@H](O)[C@@H](O)[C@]4(C)[C@H]3CC[C@]12C | 1.58 | 0.79 | 0.86 | 0.95 | – | – | –
CC(C)CC[C@@H](O)[C@](C)(O)[C@H]1CC[C@@]2(O)C3=CC(=O)[C@@H]4C[C@@H](O)[C@@H](O)C[C@]4(C)[C@H]3CC[C@]12C [PONASTERONE A] | 1.26 | – | – | – | 1.41 | 0.78 | 0.44
CC(C)(O)CC[C@@H](O)[C@](C)(O)[C@H]1CC[C@@]2(O)C3=CC(=O)[C@@H]4C[C@@H](O)[C@@H](O)C[C@]4(C)C3=CC[C@]12C | 1.24 | – | – | – | 2.66 | 3.35 | 4.61
CC(=O)[C@H]1CC[C@@]2(O)C3=CC(=O)[C@@H]4C[C@@H](O)[C@@H](O)C[C@]4(C)C3=CC[C@]12C | 5.4 | – | – | – | 1.21 | 0.67 | 0.37
CC(C)(O)CC[C@@H](O)[C@](C)(O)[C@H]1CC[C@@]2(O)C3=CC(=O)[C@H]4C[C@@H](O)C[C@@H](O)[C@]4(C)[C@H]3CC[C@]12C | 0.68 | 2.48 | 1.7 | 1.97 | – | – | –
CC1(CC[C@H]2OC(C)(C)O[C@]2(C)[C@H]2CC[C@@]3(O)C4=CC(=O)[C@@H]5C[C@H]6OC(C)(C)O[C@H]6C[C@]5(C)[C@H]4CC[C@]23C)COC(C)(C)O1 (stereo not given in full) | 24.39 | 0.23 | 0.16 | 0.12 | – | – | –
CC(C)(O)CC[C@H]1OC(C)(C)O[C@]1(C)[C@H]1CC[C@@]2(O)C3=CC(=O)[C@@H]4C[C@@H](O)[C@H]5OC(C)(C)O[C@H]5[C@]4(C)[C@H]3CC[C@]12C | 2.43 | 0.66 | 0.42 | 0.28 | – | – | –
C[C@H]([C@H](O)CCC(C)(C)O)[C@H]1CC[C@@]2(O)C3=CC(=O)[C@@H]4C[C@@H](O)[C@@H](O)C[C@]4(C)[C@H]3CC[C@]12C [ECDYSONE] | 1.38 | – | – | – | 2.31 | 4.89 | 12.16
CC(C)(O)CC[C@@H](O)[C@](C)(O)[C@H]1CC[C@@]2(O)C3=CC(=O)[C@@H]4C[C@@H](O)[C@@H](O)C[C@]4(C)[C@H]3[C@H](O)C[C@]12C [TURKESTERONE] | 0.93 | – | – | – | 5.19 | 4.53 | 4.2
CC(C)(O)CC[C@@H](O)[C@](C)(O)[C@H]1CC[C@@]2(O)C3=CC(=O)[C@@H]4C[C@@H](O)[C@@H](O)[C@@H](O)[C@]4(C)[C@H]3CC[C@]12C [INTEGRISTERONE A] | 0.94 | – | – | – | 0.8 | 1.31 | 2.42
CC(C)(O)CC[C@H]1OC(C)(C)O[C@]1(C)[C@H]1CC[C@@]2(O)C3=CC(=O)[C@@H]4C[C@H]5OC(C)(C)O[C@H]5[C@@H](O)[C@]4(C)[C@H]3CC[C@]12C | 2.53 | 1.23 | 0.49 | 0.24 | – | – | –
C[C@H]([C@H](O)CCC(C)(C)O)[C@H]1CC[C@@]2(O)C3=CC(=O)[C@@H]4C[C@@H](O)CC[C@]4(C)[C@H]3CC[C@]12C | 0.94 | – | – | – | 2.05 | 1.27 | 0.81
CC(C)(O)CCC[C@](C)(O)[C@H]1CC[C@@]2(O)C3=CC(=O)[C@@H]4C[C@@H](O)[C@@H](O)C[C@]4(C)[C@H]3CC[C@]12C | 0.67 | – | – | – | 2.04 | 1.75 | 1.59
CC1(C)CC[C@H]([C@](C)(O)[C@H]2CC[C@@]3(O)C4=CC(=O)[C@@H]5C[C@@H](O)[C@@H](O)C[C@]5(C)[C@H]4CC[C@]23C)O1 [SHIDASTERONE] | 0.88 | – | – | – | 1.44 | 0.32 | 0.096
CC(=O)O[C@H](CCC(C)(C)O)[C@](C)(O)[C@H]1CC[C@@]2(O)C3=CC(=O)[C@@H]4C[C@@H](O)[C@@H](O)C[C@]4(C)[C@H]3CC[C@]12C | 1.54 | – | – | – | 1.6 | 0.97 | 0.64
CC(C)CC[C@@H](O)[C@](C)(O)[C@H]1CC[C@@]2(O)C3=CC(=O)[C@]4(O)C[C@@H](O)[C@@H](O)C[C@]4(C)[C@H]3[C@H](O)C[C@]12C [MURISTERONE A] | 0.74 | – | – | – | – | – | –
CCC1=C(C)C(=O)O[C@@H]([C@](C)(O)[C@H]2CC[C@@]3(O)C4=CC(=O)[C@@H]5C[C@@H](O)[C@@H](O)C[C@]5(C)[C@H]4CC(=O)[C@]23C)C1 [AJUGALACTONE] | 0.87 | – | – | – | 1.43 | 1.96 | 2.89

The next lines start with results.

Ratio [1] | Compound | fractional inhibitory concentration index (FICI) [2] | fractional inhibitory concentration index (FICI) [3] | fractional inhibitory concentration index (FICI) [4] | fractional inhibitory concentration index (FICI) [5] | fractional inhibitory concentration index (FICI) [6] | fractional inhibitory concentration index (FICI) [7]
7.01 | CC(C)(O)CC[C@H]1OC(C)(C)O[C@]1(C)[C@H]1CC[C@@]2(O)C3=CC(=O)[C@@H]4C[C@@H](O)CC[C@]4(C)[C@H]3CC[C@]12C | 0.88 | 0.28 | 0.091 | – | – | –
1.21 | CC(C)(O)CC[C@@H](O)[C@](C)(O)[C@H]1CC[C@@]2(O)C3=CC(=O)[C@@]4(O)C[C@@H](O)CC[C@]4(C)[C@H]3CC[C@]12C | – | – | – | 0.78 | 0.45 | 0.27
1.21 | CC[C@H](C[C@H]1OC(C)(C)O[C@]1(C)[C@H]1CC[C@@]2(O)C3=CC(=O)[C@@H]4C[C@@H](O)[C@@H](O)C[C@]4(C)[C@H]3CC[C@]12C)C(C)(C)O | – | – | – | 0.81 | 0.26 | 0.091
8.55 | CC(=O)O[C@H]1C[C@@]2(C)[C@@H](C[C@H]1OC(C)=O)C(=O)C=C1[C@@H]2CC[C@]2(C)[C@@H]([C@@](C)(O)[C@@H](CCC(C)(C)OC(C)=O)OC(C)=O)CC[C@@]12O | 0.73 | 0.29 | 0.13 | – | – | –
1.48 | CC(=O)O[C@H]1C[C@]2(C)[C@H]3CC[C@]4(C)[C@@H]([C@@](C)(O)[C@@H](CCC(C)(C)OC(C)=O)OC(C)=O)CC[C@@]4(O)C3=CC(=O)[C@]2(O)C[C@H]1OC(C)=O | – | – | – | 0.65 | 0.46 | 0.38
1.8 | CC(C)(O)CC[C@H]1OC(C)(C)O[C@]1(C)[C@H]1CC[C@@]2(O)C3=CC(=O)[C@]4(O)C[C@@H](O)[C@@H](O)C[C@]4(C)[C@H]3CC[C@]12C | – | – | – | 0.63 | 0.21 | 0.11
0.68 | CC(C)(CC[C@@H](O)[C@](C)(O)[C@H]1CC[C@@]2(O)C3=CC(=O)[C@@H]4C[C@@H](O)CC[C@]4(C)[C@H]3CC[C@]12C)O[C@@H]1O[C@H](CO)[C@@H](O)[C@H](O)[C@H]1O | – | – | – | 1.05 | 0.72 | 0.51
0.81 | CC(C)(O)CC[C@@H](O)[C@](C)(O)[C@H]1CC[C@@]2(O)C3=CC(=O)[C@H]4C[C@@H](O)[C@@H](O)C[C@]4(C)[C@H]3CC[C@]12C | – | – | – | 0.99 | 0.57 | 0.37
1.21 | CC(=O)O[C@H](CCC(C)(C)O)[C@](C)(O)[C@H]1CC[C@@]2(O)C3=CC(=O)[C@@H]4C[C@@H](O)CC[C@]4(C)[C@H]3CC[C@]12C | – | – | – | 1.03 | 0.66 | 0.44
8.19 | CC(C)(O)CC[C@H]1OC(C)(C)O[C@]1(C)[C@H]1CC[C@@]2(O)C3=CC(=O)[C@H]4C[C@@H](O)CC[C@]4(C)[C@H]3CC[C@]12C | – | – | – | 1.28 | 0.69 | 0.37
